Data reported in PubChem BioAssay AID192 (DTP/NCI, 2004).
Toxic doses and inconclusive results are not listed. The calls were made as follows: active = survival T/C of 150% or more; inactive = T/C below 125% in these data.

Tested on: BDF1 mice, B16 melanoma ip, median survival T/C
Assay: NCI In Vivo Anticancer Drug Screen. Data for tumor model B16 Melanoma (intraperitoneal) in B6D2F1 (BDF1) mice
Conditions: endpoint: median survival time, higher = longer survival
Outline: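 Tumor-bearing mice received test compound or vehicle. Survival or tumor size was then measured in both groups. The treated-group figure was divided by the control-group figure.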

[1] = dose: 50.0 mg/kg/injection, schedule: Q01DX009 (ip), vehicle: saline
[2] = dose: 100.0 mg/kg/injection, schedule: Q01DX009 (ip), vehicle: saline
[3] = dose: 200.0 mg/kg/injection, schedule: Q01DX009 (ip), vehicle: saline
[4] = dose: 25.0 mg/kg/injection, schedule: Q01DX009 (ip), vehicle: saline
[5] = dose: 400.0 mg/kg/injection, schedule: Q01DX009 (ip), vehicle: saline
[6] = dose: 12.5 mg/kg/injection, schedule: Q01DX009 (ip), vehicle: Klucel (hydroxypropylcellulose) (HPC)
[7] = dose: 25.0 mg/kg/injection, schedule: Q01DX009 (ip), vehicle: Klucel (hydroxypropylcellulose) (HPC)
[8] = dose: 50.0 mg/kg/injection, schedule: Q01DX009 (ip), vehicle: Klucel (hydroxypropylcellulose) (HPC)
[9] = dose: 100.0 mg/kg/injection, schedule: Q01DX009 (ip), vehicle: Klucel (hydroxypropylcellulose) (HPC)
[10] = dose: 25.0 mg/kg/injection, schedule: Q01DX009 (ip), vehicle: saline with Tween-80
[11] = dose: 50.0 mg/kg/injection, schedule: Q01DX009 (ip), vehicle: saline with Tween-80
[12] = dose: 100.0 mg/kg/injection, schedule: Q01DX009 (ip), vehicle: saline with Tween-80
[13] = dose: 200.0 mg/kg/injection, schedule: Q01DX009 (ip), vehicle: saline with Tween-80
[14] = dose: 6.25 mg/kg/injection, schedule: Q01DX009 (ip), vehicle: saline with Tween-80
[15] = dose: 200.0 mg/kg/injection, schedule: Q01DX009 (ip), vehicle: Klucel (hydroxypropylcellulose) (HPC)
[16] = dose: 400.0 mg/kg/injection, schedule: Q01DX009 (ip), vehicle: Klucel (hydroxypropylcellulose) (HPC)
[17] = dose: 12.5 mg/kg/injection, schedule: Q01DX009 (ip), vehicle: saline with Tween-80
[18] = dose: 12.5 mg/kg/injection, schedule: Q01DX009 (ip), vehicle: saline
[19] = dose: 80.0 mg/kg/injection, schedule: Q01DX009 (ip), vehicle: saline

Measured: T/C

COc1ccc(NC(=O)Nc2c(C)cc(C)cc2C)cc1
inactive: dose: 100.0 mg/kg/injection, schedule: Q01DX009 (ip), vehicle: gum acacia 96 % of control | dose: 200.0 mg/kg/injection, schedule: Q01DX009 (ip), vehicle: gum acacia 90 % of control | dose: 400.0 mg/kg/injection, schedule: Q01DX009 (ip), vehicle: gum acacia 101 % of control

CN1CCC(CO)C1 (stereo not given)
inactive: dose: 6.25 mg/kg/injection, schedule: Q01DX009 (ip), vehicle: water 99 % of control | dose: 12.5 mg/kg/injection, schedule: Q01DX009 (ip), vehicle: water 109 % of control | dose: 25.0 mg/kg/injection, schedule: Q01DX009 (ip), vehicle: water 108 % of control | [1] 100 % of control | dose: 50.0 mg/kg/injection, schedule: Q01DX009 (ip), vehicle: water 103 % of control | [2] 97 % of control | [3] 91 % of control

C(COCC1CO1)OCC1CO1 (stereo not given)
inactive: [4] 91 % of control | [1] 113 % of control | [2] 119 % of control

CCOP(=O)(CCCCN1C(=O)c2ccccc2C1=O)OCC
inactive: [2] 104 % of control | [3] 96 % of control | [5] 103 % of control

CCCCCCCCCCCCCCCCCC[N+](C)(C)C (tested in a mixture with another compound)
inactive: dose: 0.1 mg/kg/injection, schedule: Q01DX009 (ip), vehicle: saline sonified 90 % of control | dose: 2.0 mg/kg/injection, schedule: Q01DX009 (ip), vehicle: saline sonified 86 % of control | dose: 4.0 mg/kg/injection, schedule: Q01DX009 (ip), vehicle: saline sonified 86 % of control

CCCC1=NNc2n[nH]c(=S)n2N1
inactive: [6] 106 % of control | [7] 112 % of control | [8] 87 % of control

O=c1oc(-c2cccc([N+](=O)[O-])c2)nc2ccccc12
inactive: [8] 106 % of control | [9] 86 % of control

O=C(O)O
inactive: [2] 102 % of control | [3] 97 % of control | [5] 94 % of control

CC(C)=CCc1c2c(c(O)c3c(=O)c(-c4ccc(O)c(O)c4)coc13)C=CC(C)(C)O2
inactive: [10] 100 % of control | [11] 94 % of control | [12] 94 % of control | [13] 100 % of control

O=C(Nc1ccccc1F)c1ccc(C(=O)Nc2ccccc2F)cc1
inactive: [6] 100 % of control | [7] 105 % of control | [8] 101 % of control

O=C(O)C(=O)O.O=C([O-])C(=O)O.O=C([O-])C(=O)O.O=C([O-])C(=O)[O-].[K+].[U]
inactive: dose: 0.5 mg/kg/injection, schedule: Q01DX009 (ip), vehicle: Klucel (hydroxypropylcellulose) (HPC) 98 % of control | dose: 1.0 mg/kg/injection, schedule: Q01DX009 (ip), vehicle: Klucel (hydroxypropylcellulose) (HPC) 97 % of control | dose: 1.0 mg/kg/injection, schedule: Q01DX009 (ip), vehicle: saline 100 % of control | dose: 2.0 mg/kg/injection, schedule: Q01DX009 (ip), vehicle: saline 98 % of control

COC(=O)c1cc(Cl)ccc1OCC(=O)Nc1ccc([N+](=O)[O-])cc1
inactive: [8] 100 % of control | [9] 100 % of control

C[CH2][Pb]([CH2]C)([CH2]C)[O]C(=O)COc1ccccc1
inactive: dose: 1.5 mg/kg/injection, schedule: Q01DX009 (ip), vehicle: saline with Tween-80 104 % of control | dose: 3.0 mg/kg/injection, schedule: Q01DX009 (ip), vehicle: saline with Tween-80 107 % of control | [14] 108 % of control

Cc1nc2c(O)ccc(O)c2nc1C
inactive: dose: 1.56 mg/kg/injection, schedule: Q01DX009 (ip), vehicle: saline with Tween-80 106 % of control | dose: 3.13 mg/kg/injection, schedule: Q01DX009 (ip), vehicle: saline with Tween-80 102 % of control | [14] 100 % of control | [11] 89 % of control

Cc1cc(Cl)ccc1NC(=O)Nc1ccc(Cl)c(Cl)c1
inactive: dose: 50.0 mg/kg/injection, schedule: Q04DX003 (ip), vehicle: Klucel (hydroxypropylcellulose) (HPC) 90 % of control | dose: 100.0 mg/kg/injection, schedule: Q04DX003 (ip), vehicle: Klucel (hydroxypropylcellulose) (HPC) 95 % of control

Nc1n[nH]c(=O)[nH]1
inactive: [7] 107 % of control | [8] 98 % of control | [9] 109 % of control | [15] 107 % of control

CCCCC(CC)CCC(O)CCC(CC)CC (stereo not given)
inactive: [9] 90 % of control | [16] 87 % of control

O=C1C(CCSc2ccccc2)C(=O)N(c2ccccc2)C1c1ccccc1 (stereo not given)
inactive: [9] 116 % of control | [15] 113 % of control | [16] 110 % of control

C/C(Cc1ccccc1)=N\[N+](C)(C)C
inactive: dose: 75.0 mg/kg/injection, schedule: Q04DX003 (ip), vehicle: saline 109 % of control | dose: 150.0 mg/kg/injection, schedule: Q04DX003 (ip), vehicle: saline 104 % of control

NC(=S)N/N=C\c1nccc2c(C(F)(F)F)cccc12
inactive: dose: 1.5 mg/kg/injection, schedule: Q04DX003 (ip), vehicle: saline with Tween-80 105 % of control | dose: 3.0 mg/kg/injection, schedule: Q04DX003 (ip), vehicle: saline with Tween-80 110 % of control | dose: 6.0 mg/kg/injection, schedule: Q04DX003 (ip), vehicle: saline with Tween-80 100 % of control | dose: 12.0 mg/kg/injection, schedule: Q04DX003 (ip), vehicle: saline with Tween-80 102 % of control

CC(C)(O)c1cccc2c(C(C)(C)O)cccc12
inactive: [9] 92 % of control | [15] 114 % of control | [16] 91 % of control

CNc1ccc(O)cc1
inactive: [14] 92 % of control | [17] 92 % of control | [10] 95 % of control

OCC12COCN1COC2
inactive: [18] 117 % of control | [4] 119 % of control | [1] 111 % of control | [2] 117 % of control | [3] 119 % of control

NC(N)=N/N=C(/c1ccccc1)c1ccc(F)cc1
inactive: dose: 20.0 mg/kg/injection, schedule: Q01DX009 (ip), vehicle: saline 110 % of control | dose: 40.0 mg/kg/injection, schedule: Q01DX009 (ip), vehicle: saline 115 % of control | [19] 102 % of control

COC(=O)C(N)CCCCNc1ccc2c(cc1=O)C(NC(C)=O)CCc1cc(OC)c(OC)c(OC)c1-2 (stereo not given)
inactive: dose: 35.0 mg/kg/injection, schedule: Q01DX009 (ip), vehicle: saline 103 % of control | dose: 53.0 mg/kg/injection, schedule: Q01DX009 (ip), vehicle: saline 106 % of control | [19] 93 % of control | dose: 120.0 mg/kg/injection, schedule: Q01DX009 (ip), vehicle: saline 88 % of control | dose: 180.0 mg/kg/injection, schedule: Q01DX009 (ip), vehicle: saline 92 % of control

C=CC(=O)NCNC(=O)CCBr
inactive: [7] 115 % of control | [8] 121 % of control | [9] 123 % of control

CN(C)CC/C=C1\c2ccccc2CN(C)c2ccccc21
inactive: dose: 6.25 mg/kg/injection, schedule: Q01DX009 (ip), vehicle: saline 102 % of control | [18] 107 % of control | [4] 94 % of control | [1] 99 % of control

ClCC1C(CCl)C2(Cl)C(Cl)=C(Cl)C1(Cl)C2(Cl)Cl (stereo not given)
inactive: [11] 92 % of control | [12] 93 % of control | [13] 92 % of control

COc1cc2nc3cc([N+](=O)[O-])ccc3c(Cl)c2cc1OC
inactive: [8] 103 % of control | [9] 96 % of control

CCOc1ccccc1NC(=O)Nc1ccccc1
inactive: [9] 102 % of control | [15] 103 % of control | [16] 99 % of control

Fc1ccc(/C=C2/c3cc(Cl)ccc3-c3c(Cl)cc(Cl)cc32)cc1
inactive: [14] 90 % of control | [17] 90 % of control | [10] 95 % of control

Clc1ccc(COC(Cn2ccnc2)c2ccc(Cl)cc2Cl)c(Cl)c1 (stereo not given)
inactive: [7] 106 % of control | [8] 115 % of control | [9] 96 % of control | [15] 106 % of control

Cc1cccc(C)c1NS(=O)(=O)c1ccccc1
inactive: [15] 87 % of control | [16] 92 % of control

CCCCCCCC(=O)CC(C)C
inactive: [9] 106 % of control | [15] 86 % of control

O=N[O-].[Co].[NH2-].[NH2-].[NH2-].[NH2-].[NH2-]
inactive: [18] 90 % of control | dose: 12.5 mg/kg/injection, schedule: Q04DX003 (ip), vehicle: saline 107 % of control | [4] 97 % of control | dose: 25.0 mg/kg/injection, schedule: Q04DX003 (ip), vehicle: saline 105 % of control | [1] 100 % of control | dose: 50.0 mg/kg/injection, schedule: Q04DX003 (ip), vehicle: saline 100 % of control
